Measured values from US20170119844A1, “HEMOSTATIC PHARMACEUTICAL COMPOSITION” (OTSUKA CHEMICAL CO., LTD., priority 2014, published 2017).

Assay: Solubility in ultrapure water when preparing peptide solutions
Assay type: physicochemical

## CC(=O)N[C@@H](CCCNC(=N)N)C(=O)N[C@@H](C)C(=O)N[C@@H](CC(=O)O)C(=O)N[C@@H](C)C(=O)N[C@@H](CCCNC(=N)N)C(=O)N[C@@H](C)C(=O)N[C@@H](CC(=O)O)C(=O)N[C@@H](C)C(=O)N[C@@H](CCCNC(=N)N)C(=O)N[C@@H](C)C(=O)N[C@@H](CC(=O)O)C(=O)N[C@@H](C)C(=O)N[C@@H](CCCNC(=N)N)C(=O)N[C@@H](C)C(=O)N[C@@H](CC(=O)O)C(=O)N[C@@H](C)C(N)=O [(RADA)4]
  solubility in water: did not completely dissolve at a concentration of 2% by weight or higher
